{"source": "patent US10413612B2", "about": "“Method of treating cancer with a biomaterial and a toll-like receptor agonist” (Dana-Farber Cancer Institute, Inc., priority 2016, dated 2019)", "key": {"TLR7 [1]": {"target": "T1, TLR7 (Homo sapiens, UniProt Q9NYK1)", "T1 construct": "expressed in transfected cells; host or cells: HEK293", "T1 sequence (Q9NYK1 27-1049)": "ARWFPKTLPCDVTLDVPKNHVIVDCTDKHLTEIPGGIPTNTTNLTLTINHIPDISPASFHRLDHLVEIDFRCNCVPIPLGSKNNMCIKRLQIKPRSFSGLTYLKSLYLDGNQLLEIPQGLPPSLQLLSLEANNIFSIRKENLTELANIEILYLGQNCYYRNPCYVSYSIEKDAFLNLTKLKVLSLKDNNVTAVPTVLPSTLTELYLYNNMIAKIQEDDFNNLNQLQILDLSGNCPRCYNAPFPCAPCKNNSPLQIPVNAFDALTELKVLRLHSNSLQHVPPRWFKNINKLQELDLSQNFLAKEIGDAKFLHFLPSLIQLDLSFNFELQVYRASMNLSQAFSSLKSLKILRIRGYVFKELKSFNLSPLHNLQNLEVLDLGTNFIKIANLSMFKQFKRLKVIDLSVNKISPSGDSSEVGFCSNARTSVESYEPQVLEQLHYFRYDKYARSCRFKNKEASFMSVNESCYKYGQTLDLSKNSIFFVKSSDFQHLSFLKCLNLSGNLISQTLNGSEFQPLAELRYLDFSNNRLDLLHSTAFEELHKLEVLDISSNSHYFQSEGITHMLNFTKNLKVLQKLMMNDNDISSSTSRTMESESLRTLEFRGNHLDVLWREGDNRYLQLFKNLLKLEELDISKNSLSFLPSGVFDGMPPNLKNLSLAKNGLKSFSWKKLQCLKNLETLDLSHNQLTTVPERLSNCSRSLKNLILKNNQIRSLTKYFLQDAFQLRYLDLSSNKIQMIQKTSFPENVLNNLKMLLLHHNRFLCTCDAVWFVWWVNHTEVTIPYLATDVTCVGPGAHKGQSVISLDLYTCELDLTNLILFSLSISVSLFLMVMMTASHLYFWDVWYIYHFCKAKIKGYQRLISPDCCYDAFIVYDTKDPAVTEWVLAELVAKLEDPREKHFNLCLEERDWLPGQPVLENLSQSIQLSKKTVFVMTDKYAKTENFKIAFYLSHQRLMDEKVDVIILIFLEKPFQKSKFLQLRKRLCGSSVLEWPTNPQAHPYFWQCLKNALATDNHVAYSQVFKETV", "conditions": "TLR7-transfected HEK293 cells; cited from earlier work"}, "TLR8": {"target": "T2, TLR8 (Homo sapiens, UniProt Q9NR97)", "T2 construct": "expressed in transfected cells; host or cells: HEK293", "T2 sequence (Q9NR97 27-1041)": "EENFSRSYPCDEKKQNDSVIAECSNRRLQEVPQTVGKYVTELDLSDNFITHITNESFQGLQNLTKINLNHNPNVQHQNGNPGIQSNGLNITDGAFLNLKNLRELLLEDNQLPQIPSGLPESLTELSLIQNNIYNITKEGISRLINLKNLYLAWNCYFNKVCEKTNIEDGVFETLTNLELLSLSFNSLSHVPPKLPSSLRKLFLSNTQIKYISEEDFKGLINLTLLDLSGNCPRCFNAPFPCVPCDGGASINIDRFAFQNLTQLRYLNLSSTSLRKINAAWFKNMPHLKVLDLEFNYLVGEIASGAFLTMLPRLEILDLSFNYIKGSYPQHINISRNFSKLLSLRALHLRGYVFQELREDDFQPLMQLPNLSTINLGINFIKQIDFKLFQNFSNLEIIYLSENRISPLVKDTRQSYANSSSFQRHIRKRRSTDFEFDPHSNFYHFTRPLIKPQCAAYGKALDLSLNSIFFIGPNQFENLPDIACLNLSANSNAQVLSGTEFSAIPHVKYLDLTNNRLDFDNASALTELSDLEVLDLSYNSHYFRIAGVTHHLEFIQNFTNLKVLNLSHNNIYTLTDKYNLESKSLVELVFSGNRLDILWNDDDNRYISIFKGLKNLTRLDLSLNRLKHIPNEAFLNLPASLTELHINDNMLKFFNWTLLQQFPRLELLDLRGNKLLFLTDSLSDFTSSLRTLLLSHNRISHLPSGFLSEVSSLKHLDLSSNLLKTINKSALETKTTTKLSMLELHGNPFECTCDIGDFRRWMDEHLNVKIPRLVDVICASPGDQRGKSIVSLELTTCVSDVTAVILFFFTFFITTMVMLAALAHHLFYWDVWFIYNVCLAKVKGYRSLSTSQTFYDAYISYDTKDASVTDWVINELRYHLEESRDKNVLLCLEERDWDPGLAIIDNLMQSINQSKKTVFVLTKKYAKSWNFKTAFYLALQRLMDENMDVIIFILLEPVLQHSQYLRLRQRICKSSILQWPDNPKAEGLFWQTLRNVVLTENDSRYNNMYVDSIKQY", "conditions": "cited from earlier work"}, "TLR7 [2]": {"target": "T1, TLR7", "conditions": "cited from earlier work"}, "[3]": {"assay": "In vivo release study (fluorescence IVIS imaging)", "set-up": "species or system non-tumor-bearing mice", "conditions": "mouse, in vivo", "source_text": "To evaluate the in vivo release profiles of Cy7 carboxylic acid (a model compound for R848), anti-PD-1, IL-15sa, and 2′3′-cGAMP, hydrogels containing the fluorophore or one of the fluorescently labeled payloads were surgically implanted into non-tumor-bearing mice.\nThe loading and release properties of the hydrogel were examined in additional experiments. […] It was then confirmed that the hydrogel extends the release of the small molecules and biologics in vivo. Cy7 carboxylic acid (Cy7-CA) was used as a model small molecule payload, as its physical properties are very similar to those of resiquimod (R848). Cy7-CA was administered to non-tumor-bearing mice, either in solution or loaded in a scaffold placed by the fourth mammary fat pad. The mice were assessed by fluorescence IVIS imaging (FIG. 37B), and the data were quantified (FIG. 37C). Whereas a loss of ˜60% of the signal was detected within two hours of administration of the fluorophore in solution, this amount of signal decay required 24 hours for the fluorophore loaded in the hydrogel. Over this time course, there was a […] for the latter group, on average.\nTo confirm that the hydrogel sustains the release of the small molecule and biologics in vivo, fluorescently labeled versions of 2 ? […]"}, "[4]": {"system": "4T1-Luc2 syngeneic breast cancer cells", "conditions": "for survival with compromised immune system: NK, CD8+ T or CD4+ T cells depleted or IFNAR1 neutralized; for survival benefit as innate immune activator component: hydrogel with IL-15sa and anti-PD-1 (devices 1, 14-16); for efficacy (tumor recurrence, metastasis, survival), in words: scaffold placed in tumor resection site 10 days after inoculation", "procedure": "Seven-week-old female Balb/c mice were inoculated orthotopically with 100,000 4T1-Luc2 syngeneic breast cancer cells (into the fourth mammary fat pad). After 10 days, the mice were anesthetized, tumors were surgically resected, and compositions were placed in the resection site. […] The order of surgeries avoided systematic error by dividing up the groups. Standard follow-up care (wound clips, analgesic) was provided.\nFor the metastatic breast cancer model, 10^5 4T1-Luc2 or 4T1 cells (in 30 μl DPBS) were inoculated orthotopically into the fourth mammary pad of mice to generate a local tumor mass. Cells were injected without any incision to expose the fat pad. Mice were randomly assigned to treatment groups, and surgery was performed 10 days after tumor inoculation. For the metastatic melanoma and lung cancer models, 10^6B16-BL6 or 5×10^5 LLC cells (in 100 μl DPBS) were inoculated subcutaneously in mice to generate a local tumor mass. Mice were randomly assigned to treatment groups, and surgery was performed when tumor volumes reached ˜600 mm^3. While mice were kept under anesthesia at 2% isoflurane, the tumor was resected, and the hydrogel was placed in the site of the resultant cavity at the time of surgery. The wound was closed with medical clips. Control experiments were performed in which therapy was administered in solution at the site of surgery, intraperitoneally, or intravenously. For tumor re-challenge experiments, 10^4 4T1-Luc2 cells were inoculated in the contralateral fourth mammary fat pad. The surgeries were performed independently at least three times, and the surgeon was often blinded.\nAfter surgery, mice were inspected weekly for tumor recurrence and distal metastasis by bioluminescence imaging (BLI). To this end, 10 min after intraperitoneal injection of D-luciferin (150 mg/kg), a substrate of Luc2, the mice were anesthetized with 2% isoflurane and imaged using an IVIS Spectrum In Vivo Imaging System (Perkin Elmer).\nA series of compositions described above in Table 2 were evaluated in viva. In each group of evaluations, seven-week-old female Balb/c mice were inoculated orthotopically with 100,000 4T1-Luc2 syngeneic breast cancer cells (into the fourth mammary fat pad). After 10 days, mice were anesthetized, tumors were surgically resected, and the composition was placed in the resection site. Tumor relapse and metastasis were monitored via imaging over the course of 6 weeks.\nFemale BALB/cJ mice were inoculated orthotopically with 4T1-Luc2 breast cancer cells in their fourth mammary fat pad. Nine days later, the mice were imaged by bioluminescent IVIS imaging to confirm that the size of the tumors was consistent across animals to enable randomization into groups. On day 10 post-tumor inoculation, tumors (˜100 mm^3) were resected, and device 1 was placed in the tumor resection site. Controls included no treatment (sham), empty hydrogel (device 8/hydrogel 4), or delivery of the triple combination in solution (S+I+P)—via intraperitoneal injection, intravenous injection, or local administration."}, "4T1-Luc2 cells [5]": {"system": "4T1-Luc2 cells", "assay": "Non-resected orthotopic 4T1-Luc2 tumors: peritumoral hydrogel or intratumoral injection", "format": "in vivo, mice", "conditions": "single intratumoral (IT) injection", "source_text": "In certain embodiments, intraoperative placement of the immunotherapy-loaded hydrogel is required for therapeutic benefit."}, "4T1-Luc2 cells [6]": {"system": "4T1-Luc2 cells", "assay": "Tumor re-challenge of surviving mice", "format": "in vivo", "conditions": "mice with durable survival after loaded hydrogel", "procedure": "The wound was closed with medical clips.\nTo gain insights into the soluble factors that are associated with the activation of innate and adaptive immune cells, the levels of cytokines in peripheral blood were measured. At multiple time points post-surgery, plasma was collected and subsequently analyzed by multiplexing laser bead technology. […] Indeed, the induction of a memory response was confirmed by re-challenging the surviving mice, 100% of which rejected the freshly inoculated 4T1-Luc2 cells (FIG. 94A)."}}, "note": "Values joined by “and” are separate entries in the source; they are usually repeats but may differ in a detail not shown here. Equal values may be shown once."}
{"molecule": "CCCCNc1nc(N)c2nc(O)n(Cc3ccc(C(=O)NCC(=O)O)cc3)c2n1", "note": "[CL264]", "values": [{"measurement": "activating concentration, times less than imiquimod", "setting": "TLR7 [1]", "value": "5-10 times"}, {"measurement": "concentration inducing NF-κB activation", "setting": "TLR7 [1]", "value": 0.1, "unit": "µM"}, {"measurement": "concentration without stimulation of TLR8", "setting": "TLR8", "value": "> 10", "unit": "µg/mL"}]}
{"molecule": "CCCCNc1nc(N)c2nc(O)n(Cc3ccc(C(=O)NCC(=O)NCCCNCCCCNCCCN)cc3)c2n1", "note": "[CL307, N1-glycinyl[4-((6-amino-2-(butylamino)-8-hydroxy-9H-purin-9-yl)methyl)benzoyl]spermine]", "values": [{"measurement": "concentration inducing robust NF-κB activation", "setting": "TLR7 [2]", "value": "≤ 20 nM and ≤ 10 ng/ml"}]}
{"molecule": "C[N+]1=C(/C=C/C2=CC(=C/C=C3/N(CCCCCC(=O)O)c4ccccc4C3(C)C)CCC2)C(C)(C)c2ccccc21.[Cl-]", "note": "[Cy7-CA, Cy7 carboxylic acid]", "values": [{"measurement": "increase in signal, hydrogel vs solution", "setting": "[3]", "value": "roughly three"}]}
{"molecule": "CCOCc1nc2c(N)nc3ccccc3c2n1CC(C)(C)O", "note": "[Device R848, resiquimod]", "values": [{"measurement": "survival with compromised immune system", "setting": "[4]", "value": "exhibited reduced survival"}, {"measurement": "survival benefit by mode of administration", "setting": "[4]; hydrogel vs solution (weekly IV, weekly IP, local with empty hydrogel)", "value": "survival benefit was observed only when R848 was loaded in the hydrogel"}, {"measurement": "survival benefit as innate immune activator component", "setting": "[4]", "value": "conferred meaningful benefit"}, {"measurement": "tolerability (body weight)", "setting": "[4]; mouse, in vivo", "value": "well tolerated"}, {"measurement": "efficacy (tumor recurrence, metastasis, survival), in words", "setting": "[4]", "value": "prevented most effectively"}, {"measurement": "survival benefit", "setting": "[4]; three consecutive daily IP injections (200 μg)", "value": "failed to confer robust survival benefit"}, {"measurement": "survival", "setting": "4T1-Luc2 cells [5]", "value": "did not prolong survival"}, {"measurement": "surviving mice that rejected / survived re-challenge", "setting": "4T1-Luc2 cells [6]", "value": 100, "unit": "%"}]}
{"molecule": "Cc1cccc(-c2[nH]c(CNc3ccccc3F)nc2-c2ccc3ncnn3c2)n1", "note": "[EW7197]", "values": [{"measurement": "efficacy of hydrogel with IL-15 superagonist, anti-PD-1 and the small molecule", "setting": "[4]; small molecule dissolved in DMSO", "value": "provided less efficacious results"}]}
{"molecule": "Nc1ncnc2c1ncn2C1O[C@@H]2CO[P@@](=O)([S-])O[C@H]3[C@@H](O)[C@H](n4cnc5c(N)ncnc54)O[C@@H]3CO[P@@](=O)([S-])O[C@@H]1[C@@H]2O.[Na+].[Na+]", "note": "(stereo partly shown) [STING-RR, 2′3′-c-di-AM(PS)2 (Rp,Rp)]", "values": [{"measurement": "survival with compromised immune system", "setting": "[4]", "value": "exhibited reduced survival"}, {"measurement": "efficacy (tumor recurrence, metastasis, survival), in words", "setting": "[4]", "value": "prevented most effectively"}, {"measurement": "survival", "setting": "4T1-Luc2 cells [5]", "value": "did not prolong survival"}, {"measurement": "surviving mice that rejected / survived re-challenge", "setting": "4T1-Luc2 cells [6]", "value": 100, "unit": "%"}]}
{"molecule": "CCOC(=O)C1=Cc2ccc(-c3cccc(C#N)c3)cc2N=C(N)C1", "note": "[TL8-506]", "values": [{"measurement": "potency in inducing NF-κB activation relative to CL075", "setting": "TLR8; TLR8-transfected HEK293 cells", "value": "~25", "unit": "×"}, {"measurement": "potency in inducing NF-κB activation relative to R848", "setting": "TLR8; TLR8-transfected HEK293 cells", "value": "~50", "unit": "×"}]}
{"molecule": "IL-21: pleiotropic cytokine", "values": [{"measurement": "survival benefit as cytokine component", "setting": "[4]; hydrogel with 2′3′-cGAMP and anti-PD-1 (devices 1, 13)", "value": "had little impact"}]}
{"molecule": "polyinosinic:polycytidylic acid [poly(I:C)]", "values": [{"measurement": "survival benefit as innate immune activator component", "setting": "[4]", "value": "had little impact"}]}
